Laboratory results reported in patent US20100210836A1, “SMALL MOLECULE INHIBITORS OF LYMPHOID TYROSINE PHOSPHATASE” (University of Southern California, priority 2009, published 2010).
pIC50: −log10 of the molar value. Like-named read-outs stand apart in the source and are kept apart here.

How the values were obtained:
[1] = test system: phosphorylation of Lck at Tyr394; assay: Anti-pSrc (Tyr416) immunoblot of thymocytes from PTPN22-/- mice; settings: 50 μM, 1 h, anti-CD3/anti-CD4 plus streptavidin
Method: (§1) The volume of DMSO added was held constant at less than 2% of the total volume. Thymocytes pre-incubated with DMSO or inhibitor were divided into 200 μL aliquots containing 10×10^6 cells, treated with biotinylated CD3 and CD4 antibodies for 30 min and stimulated with the crosslinker, streptavidin for 1.5 min, or left untreated.
(§2) Aliquots of lysates were suspended in SDS sample buffer, heated at 95° C. for 5 minutes and the boiled samples run on 10% SDS-polyacrylamide gels. Proteins resolved by gel electrophoresis were transferred onto nitrocellulose membranes (Hybond ECL, GE Healthcare), using appropriate dilutions of unconjugated primary antibodies followed by HRP-conjugated secondary antibodies (purchased from GE Healthcare). Blots were developed with the enhanced chemiluminescence detection system, ECL-Plus, following manufacturers directions.
(§3) In parallel, the compound was also tested on T cells from normal PTPN22+/+ mice.

[2] = test system: TCR-induced phosphorylation of SLP-76; assay: Phospho-flow cytometry of JTAg cells, anti-pSLP76 (Tyr128); settings: 50 μM, 1 h, compared to control
Method: Phosphoflow cytometry. Phospho-flow cytometry was performed on JTAg cells following published protocols (BD Biosciences). […] Cell fluorescence was assessed on a Cytomics FC500 cytometer (Beckman Coulter) at the USC Immune Monitoring Core. Data Analysis and graph preparation were carried using FlowJo (Tree Star, Inc., Ashland, Oreg.).

ERK1/2 phosphorylation = assay: Anti-pERK1/2 blot of JTAg cells; settings: 50 μM, 1 h
Method: (§4) The volume of DMSO added was held constant at less than 2% of the total volume. JTAg cells pre-incubated with DMSO or inhibitor were divided into 400 μL aliquots containing 10×10^6 cells and stimulated with supernatants of C305 hybridoma (31) for 2 min or left untreated. […] The total protein concentration in each cell lysate was determined by the Bradford protein assay (Bio-Rad) in order to normalize the amount of protein used in SDS-PAGE.
as §2

[3] = test system: phosphorylation of ZAP-70; assay: Anti-pZAP (Tyr319) blot of JTAg cells; settings: 50 μM, 1 h
Method: as §4, §2

[4] = test system: phosphorylation of Lck at Tyr394; assay: Anti-pSrc (Tyr416) immunoblot of thymocytes from PTPN22+/+ mice; settings: 50 μM, 1 h, anti-CD3/anti-CD4 plus streptavidin
Method: as §1, §2, §3

PTP-PEST = target: T1, PTP-PEST (Homo sapiens, UniProt Q05209); assay: Counter-screen phosphatase assay PTP-PEST; type: biochemical
T1 sequence (Q05209 2-323): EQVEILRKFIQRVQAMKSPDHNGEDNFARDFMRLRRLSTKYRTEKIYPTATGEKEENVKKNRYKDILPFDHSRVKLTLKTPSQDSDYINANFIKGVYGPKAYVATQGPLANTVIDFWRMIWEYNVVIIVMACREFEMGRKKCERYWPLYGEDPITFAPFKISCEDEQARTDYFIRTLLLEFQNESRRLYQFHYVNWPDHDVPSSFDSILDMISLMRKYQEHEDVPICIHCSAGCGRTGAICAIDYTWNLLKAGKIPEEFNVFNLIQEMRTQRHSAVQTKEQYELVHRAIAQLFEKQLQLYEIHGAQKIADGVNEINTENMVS

LYP/PTPN22 = target: T2, LYP/PTPN22 (Homo sapiens, UniProt Q9Y2R2); assay: biochemical
T2 construct: catalytic domains of LYP (aa 2-309) and PTP-PEST (aa 2-323, PEST); 6xHis (N, cleaved yes); made in house; host or cells: E. coli BL21
T2 sequence (Q9Y2R2 2-309): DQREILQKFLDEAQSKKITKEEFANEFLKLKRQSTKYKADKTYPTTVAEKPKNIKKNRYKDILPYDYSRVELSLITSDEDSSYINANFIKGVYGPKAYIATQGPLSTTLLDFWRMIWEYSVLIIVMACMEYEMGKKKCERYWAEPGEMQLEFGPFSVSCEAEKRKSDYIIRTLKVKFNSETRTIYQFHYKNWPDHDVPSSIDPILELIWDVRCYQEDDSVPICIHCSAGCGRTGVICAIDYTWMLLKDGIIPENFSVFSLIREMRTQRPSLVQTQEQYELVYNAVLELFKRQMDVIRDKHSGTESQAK
Method: Chemical Library Screening for LYP Inhibitors. A library consisting of a highly diverse set of 4,000 compounds was screened in a 96-well format in an assay specific for LYP activity. […] The reaction mixture with the compounds was incubated for 25 min at 37° C. […] All assays were done in triplicate. The IC50 values were then determined for each drug from a plot of log [drug concentration] versus percentage of enzyme inhibition. Absorbance data were measured using a Molecular Devices Emax Precision Microplate reader.
Identification of Compounds as LYP Inhibitors. We initially screened a library of 4000 drug-like small-molecule compounds against LYP/PTPN22, using p-nitrophenyl phosphate (pNPP) as a substrate. The ability of the library members to inhibit LYP/PTPN22 catalyzed hydrolysis of pNPP was measured in a buffer containing 50 mM Bis-Tris pH 6.0, 1 mM DTT at 37° C.

CD45 = target: T3, CD45 (Homo sapiens, UniProt P08575); assay: Counter-screen phosphatase assay CD45; type: biochemical; settings: Table II
T3 construct: The catalytic domain of CD45 was purchased from Biomol Inc; purchased Biomol Inc
T3 sequence (P08575 653-912 limits assumed): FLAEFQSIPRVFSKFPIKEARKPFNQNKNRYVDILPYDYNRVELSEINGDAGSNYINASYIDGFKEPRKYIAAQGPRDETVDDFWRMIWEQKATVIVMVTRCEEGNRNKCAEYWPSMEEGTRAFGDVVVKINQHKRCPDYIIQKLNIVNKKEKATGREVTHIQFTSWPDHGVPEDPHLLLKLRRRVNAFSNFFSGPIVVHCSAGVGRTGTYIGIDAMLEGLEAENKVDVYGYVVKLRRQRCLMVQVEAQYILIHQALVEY
Method: Materials, chemicals and enzymes. All chemicals were purchased from commercial sources unless otherwise noted. Compounds were dissolved in DMSO, and stock solutions were stored at −20° C. The catalytic domain of CD45 was purchased from Biomol Inc.

LMPTP-A = target: T4, LMPTP-A (Homo sapiens, UniProt P24666); assay: biochemical
T4 sequence (P24666 1-158): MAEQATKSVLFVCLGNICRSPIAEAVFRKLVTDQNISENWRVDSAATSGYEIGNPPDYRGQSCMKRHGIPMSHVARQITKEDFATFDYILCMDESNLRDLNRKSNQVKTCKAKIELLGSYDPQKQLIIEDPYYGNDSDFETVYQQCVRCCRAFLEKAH

HePTP = target: T5, HePTP (Homo sapiens, UniProt P35236); assay: biochemical
T5 sequence (P35236 65-360): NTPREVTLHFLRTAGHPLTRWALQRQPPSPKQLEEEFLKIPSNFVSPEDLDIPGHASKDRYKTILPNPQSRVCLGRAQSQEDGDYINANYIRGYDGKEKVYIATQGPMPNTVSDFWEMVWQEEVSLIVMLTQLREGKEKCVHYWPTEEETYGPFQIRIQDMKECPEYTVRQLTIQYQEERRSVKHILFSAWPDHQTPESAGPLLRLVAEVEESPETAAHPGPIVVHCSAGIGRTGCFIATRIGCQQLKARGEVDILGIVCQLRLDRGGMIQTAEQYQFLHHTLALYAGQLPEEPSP

[5] = LYP IC50, Table IV, analogues of E3P13
[6] = selectivity, ratio PEST IC50 / LYP IC50, Table IV

Compound	pIC50 (PTP-PEST; read-out: PEST IC50)	pIC50 (LYP/PTPN22; [5])	PEST_LYP (LYP/PTPN22; [6])	PEST_LYP (LYP/PTPN22)	pIC50 (LYP/PTPN22; LYP IC50)	further results
Cc1ccc2[nH]c(=O)c(C(c3nnnn3C3CCCC3)N3CCCC4(CCCCC4)C3)cc2c1 (racemic) [E3P13]	–	–	–	–	–	phosphorylation of Lck at Tyr394 [1]: no effect; TCR-induced SLP-76 phosphorylation [2]: higher levels of TCR-induced SLP-76 phosphorylation; ERK1/2 phosphorylation (ERK1/2 phosphorylation): increased ERK1/2 phosphorylation; TCR-stimulated phosphorylation of ZAP-70 (Tyr319) [3]: increased TCR-stimulated phosphorylation of ZAP-70; Lck phosphorylation at Tyr394 [4]: increased Lck phosphorylation at Tyr394
Cc1cc(C)c2[nH]c(=O)c([C@H](c3nnnn3C3CCCC3)N3CCC[C@@H](C)C3)cc2c1 [compound 49]	4.34	4.40	1.15	–	–	–
Cc1ccc2[nH]c(=O)c(C(c3nnnn3C3CCCC3)N3CCN(C(c4ccccc4)c4ccccc4)CC3)cc2c1 (stereo not shown) [compound 3]	5.06	–	–	1.38	5.20	–
Cc1ccc2cc(C(c3nnnn3C3CCCC3)N(Cc3ccccc3)Cc3ccc(C(C)C)cc3)c(=O)[nH]c2c1 (stereo not shown) [compound 4]	5.00	–	–	1.31	5.12	–
COc1ccc2cc(C(c3nnnn3C3CCCC3)N3CCCC4(CCCCC4)C3)c(=O)[nH]c2c1 (stereo not shown) [compound 26]	4.50	–	–	1.74	4.74	–
Cc1cc(C)c2[nH]c(=O)c(C(c3nnnn3C3CCCC3)N3CCCC4(CCCCC4)C3)cc2c1 (stereo not shown) [compound 30]	4.51	–	–	1.53	4.69	–
O=C(CSc1nc(C2CC2)nc2sc3c(c12)CCCC3)NCc1ccc2c(c1)OCO2 [G8P15]	–	–	–	–	–	pIC50 (CD45): < 4.05; pIC50 (LMPTP-A): < 4.05; pIC50 (HePTP): < 4.40
Cc1ccc2[nH]c(=O)c([C@H](c3nnnn3C3CCCC3)N3CCN(c4ccccc4)CC3)cc2c1 [compound 47]	4.49	–	–	0.89	4.44	–
CCC(C)(C)n1nnnc1[C@@H](c1cc2cc(C)cc(C)c2[nH]c1=O)N1CCCC2(CCCCC2)C1 [compound 12]	4.70	4.92	1.69	–	–	–
Cc1ccc2cc(C(c3nnnn3C3CCCC3)N3CCCC4(CCCCC4)C3)c(=O)[nH]c2c1C (stereo not shown) [compound 13]	4.79	–	–	1.33	4.92	–
Cc1ccc2cc(C(c3nnnn3C3CCCC3)N3CCN(C(c4ccccc4)c4ccccc4)CC3)c(=O)[nH]c2c1 (stereo not shown) [compound 5]	5.02	–	–	0.81	5.10	–
Cc1ccc2[nH]c(=O)c([C@H](c3nnnn3C3CCCC3)N3CCN(c4ccccc4F)CC3)cc2c1 [compound 36]	4.64	–	–	0.92	–	–
Cc1cc(C)c2[nH]c(=O)c([C@H](c3nnnn3C(C)(C)C)N3CCCC4(CCCCC4)C3)cc2c1 [compound 19]	4.51	4.87	2.27	–	–	–
Cc1cccc2cc(C(c3nnnn3C3CCCC3)N3CCN(C(c4ccccc4)c4ccccc4)CC3)c(=O)[nH]c12 (stereo not shown) [compound 17]	5.00	–	–	0.76	4.88	–
Cc1ccc2cc(C(c3nnnn3C3CCCC3)N3CCCC4(CCCCC4)C3)c(=O)[nH]c2c1 (stereo not shown) [compound 21]	4.66	–	–	1.43	4.82	–
Cc1cc(C)c2cc(C(c3nnnn3C3CCCC3)N3CCCC4(CCCCC4)C3)c(=O)[nH]c2c1 (stereo not shown) [compound 10]	4.80	–	–	1.44	4.95	–
Cc1cccc2cc(C(c3nnnn3C3CCCC3)N3CCCC4(CCCCC4)C3)c(=O)[nH]c12 (stereo not shown) [compound 22]	4.67	–	–	1.34	4.80	–
COc1ccc(-n2ncc3c(SCC(=O)N4c5ccccc5CC4C)ncnc32)cc1 (racemic) [B11P32]	–	–	–	–	–	pIC50 (PTP-PEST; Table II, read-out: PTP-PEST IC50): < 4.40; pIC50 (CD45): < 4.05; pIC50 (LMPTP-A): < 4.05
O=c1[nH]c2ccccc2cc1[C@@H](c1nnnn1C1CCCC1)N1CCc2ccccc2C1 [compound 37]	4.50	4.55	1.13	–	–	–
Cc1ccc2[nH]c(=O)c([C@H](c3nnnn3C3CCCC3)N3CCC(C)CC3)cc2c1 [compound 32]	4.50	–	–	1.52	4.69	–
Cc1cc(C)c2cc([C@H](c3nnnn3C3CCCC3)N3CCC[C@@H](C)C3)c(=O)[nH]c2c1 [compound 40]	4.46	4.51	1.12	–	–	–

The next lines start with results.

pIC50 (PTP-PEST; read-out: PEST IC50)	pIC50 (LYP/PTPN22; [5])	PEST_LYP (LYP/PTPN22; [6])	Compound	PEST_LYP (LYP/PTPN22)	pIC50 (LYP/PTPN22; LYP IC50)	further results
4.42	4.77	2.22	Cc1ccc2cc([C@H](c3nnnn3CC3CCCC3)N3CCCC4(CCCCC4)C3)c(=O)[nH]c2c1 [compound 23]	–	–	–
4.58	4.71	1.33	Cc1cc(C)c2cc([C@H](c3nnnn3C(C)(C)C)N3CCCC4(CCCCC4)C3)c(=O)[nH]c2c1 [compound 28]	–	–	–
4.55	4.67	1.33	Cc1ccc2[nH]c(=O)c([C@H](c3nnnn3C(C)(C)C)N3CCCC4(CCCCC4)C3)cc2c1 [compound 33]	–	–	–
4.10	4.50	2.52	Cc1ccc2cc([C@H](c3nnnn3C3CCCC3)N3CCC[C@@H](C)C3)c(=O)[nH]c2c1 [compound 43]	–	–	–
4.52	4.65	1.33	CCC(C)(C)n1nnnc1[C@@H](c1cc2ccc(OC)cc2[nH]c1=O)N1CCCC2(CCCCC2)C1 [compound 35]	–	–	–
4.16	4.49	2.11	Cc1ccc2cc([C@@H](c3nnnn3C3CCCC3)N3CCCCC3)c(=O)[nH]c2c1 [compound 44]	–	–	–
4.57	4.69	1.33	Cc1ccc2cc([C@H](c3nnnn3C(C)(C)C)N3CCCC4(CCCCC4)C3)c(=O)[nH]c2c1 [compound 29]	–	–	–
4.53	4.69	1.46	Cc1cccc2cc([C@H](c3nnnn3Cc3ccccc3)N3CCCC4(CCCCC4)C3)c(=O)[nH]c12 [compound 31]	–	–	–
4.82	4.89	1.18	Cc1cc(C)c2[nH]c(=O)c([C@@H](c3nnnn3Cc3ccccc3)N3CCCC4(CCCCC4)C3)cc2c1 [compound 14]	–	–	–
4.82	4.95	1.36	Cc1ccc2[nH]c(=O)c([C@@H](c3nnnn3Cc3ccccc3)N3CCCC4(CCCCC4)C3)cc2c1 [compound 11]	–	–	–
